Reference: patent US12539284B2, “Aminoxy acid-based anti-cancer stem cell compounds and methods thereof” (Westlake University, priority 2019, dated 2026)
Where two headings read alike, the source gives them in different places.

Key:
HEY A8 cancer cells = test: Cell viability (CellTiter-Glo) on adherent HEY A8 cancer cells; format: cell-based, human; conditions: read-out: IC50 Cancer Cell HeyA8
Description: (§1) Cell Cultures Human ovarian carcinoma cell lines HEY A8 and SKOV3 were gifts from Professor Alice Wong's group (The University of Hong Kong). Cells were grown in Dulbecco's Modified Eagle (DMEM) medium supplemented with 10% FBS and 1% penicillin/streptomycin at 37° C. in a humidified atmosphere containing […] CO2. Isolation and culture of spheres were performed in serum-free stem-cell-selective condition as described in literature Ip etl. Oncogene 2014, 5, 9133-9149. Briefly, 1-2 weeks after plating, non-adherent spherical clusters of cells could be observed and were separated from single cells by low speed centrifugation. After 8th to 10th passages, the non-adherent spherical clusters of cells appeared as distinct spheres. Using this selection condition, HEY A8 spheres (HEY A8 SP) or SKOV3 spheres (SKOV3 SP) could be enzymatically dissociated and reformed into spheres within 3 days under stem-cell-selective condition. To allow differentiation, dissociated sphere cells were plated on tissue culture plates in medium (MCDB 105:M199=1:1) supplemented with 10% FBS and 1% PS.
(§2) HEY A8 or SKOV3 cancer Cells were plated in triplicate in 0.1 mL full medium in 96-well plates for 24 h. After that, the medium was changed to the fresh prepared medium with various concentrations of compounds. Cells were incubated for another 48 h. Then the cell viability was measured by CellTiter-Glo® Luminescent Cell Viability reagent according to the manufacture's instruction. The luminescence at 550 nm was measured using a microplate reader (SpectraMax 340PC 384, Molecular Devices).

HEY A8 CSCs (HEY A8 SP) = test: Toxicity / cell viability (CellTiter-Glo) on HEY A8 spheres (CSCs); format: cell-based, human; conditions: for selectivity towards ovarian CSCs over ovarian cancer cells and normal cells: from IC50 values, FIG. 4 and Table 1
Description: Aminoxy acids were synthesized by the standard peptide coupling procedures. The CSCs are obtained by spheroids culturing under suspension condition. It is confirmed that these spheres indeed contain significant higher population of cells with CD133 antigenic phenotype, which has been reported can represent ovarian CSCs (FIG. 2). After treatment with compounds for 48 h, the cell viability of CSCs was measured by using CELLTITER-GLO® luminescent reagent. Compound sff-3-85 (“Example 2”) were used at the dose of 10 μM, all the other compounds were used at the concentration of 5 μM. All experiments were performed three times and data is presented as mean±SD.
as §1
(§3) HEY A8 SP cells (5×10^4) were plated in triplicate in 10 mL serum-free MCDB105 medium in 100-mm Petri dish for 7 days to form spheres. Compound at the final concentration of 5 μM was added. The cells were further incubated at 37° C. for 48 h. After that cells were collected by centrifugation and the medium was removed. Then 100 μL CellTiter-Glo® Luminescent Cell Viability reagent was added into each tube, which was incubated for 10 min with shaking. After that, the reagent was transferred into 96-well plates and cell viability was measured using a microplate reader (SpectraMax 340PC 384, Molecular Devices).
as §3, with “A8 SP cells or SKOV3” for “A8”, “Then drugs” for “Compound”, “different” for “the final”, “were” for “of 5 μM was”, “μL of” for “μL”

HEK293 = test: Toxicity against normal cell line HEK293; format: cell-based
From the text: (§4) Fourteen compounds including aminoxy acid monomers and dipeptides have been identified to show toxicity against HEY A8 CSCs. The half maximal inhibitory concentration (IC50) values of compounds sff-2-112, sff-2-124, sff-2-132 and sff-2-100 towards adherent cancer HEY A8, SKOV3 cells and CSCs were further determined. […] Especially compound sff-2-132, its selectivity to CSCs is up to 60-fold higher than that to cancer cells. Their toxicity against other normal cell lines NIH3T3, HEK293 and MDCK were also tested and the IC50 values were summarized in Table 1.

Huh 7 CD133- cells = test: Cell viability (CellTiter-Glo) of sorted Huh 7 CD133- cells; format: cell-based; conditions: 48 h, different doses
Description: (§5) Huh-7 cells were stained with PE-conjugated CD133 antibody (HCC cancer stem cell marker) according to the manufacturer's instructions. Then CD133^+ cells (Huh 7 cancer stem cells) and CD133− cells were sorted by flow cytometry and seeded into 96-well plate with fresh DMEM medium. After 24 h, medium was changed to fresh medium with compound sff-2-112 (“Example 1”) or sff-2-124 (“Example 3”) at different doses. After 48 h, cell viability was analyzed by CellTiter-Glo luminescent agent.

SKOV3 cancer cells = test: Cell viability (CellTiter-Glo) on adherent SKOV3 cancer cells; format: cell-based, human; conditions: 48 h incubation
Description: as §1, §2

[1] = tested on: Huh 7 cancer stem cells (CD133+); test: Cell viability (CellTiter-Glo) of sorted Huh 7 CD133+ cells; format: cell-based; conditions: 48 h
Description: as §5

MDCK = test: Toxicity against normal cell line MDCK; format: cell-based
From the text: as §4

NIH3T3 = test: Toxicity against normal cell line NIH3T3; format: cell-based
From the text: as §4

HEY A8 CSCs [2] = test: Apoptosis, Annexin V / PI flow cytometry, CSCs; format: cell-based, human; conditions: 5 μM, 2 days; DMSO 4.92%
Description: A suspension of HEY A8 cells at the concentration of 5×10^4 cells/mL in DMEM medium were seeded into 60-mm cell culture dishes. Cells were incubated at 37° C. in a humidified atmosphere containing 5% CO2 for 24 h followed by the addition of 4 mL fresh medium or medium containing compound sff-2-112 (“Example 1”) or sff-2-132 (“Example 4”) at different concentration. Medium containing 0.1% DMSO was used as negative control. After 2 days, the medium was aspirated and cells were washed with cold PBS twice, and then stained with PI and Annexin V according to the manufacture's instruction (Dead Cell Apoptosis Kit with Annexin V Alexa Fluor™ 488 & Propidium Iodide, Thermo Fisher). Cells were analyzed by flow cytometry (BD FACS CantoII Analyzer).

HEY A8 CSCs [3] = test: In vivo tumor seeding ability of pretreated HEY A8 CSCs; conditions: CSCs pretreated 2 days in vitro, 10^6 cells injected subcutaneously in mice, 25 days
Description: In vivo tumor seeding ability of cells after treatment with compound sff-2-112 (“Example 1”) or sff-2-132 (“Example 4”) was evaluated. Taxol was used as a negative control. For this experiment, HEY A8 CSCs were pretreated with sff-2-112 (“Example 1”), sff-2-132 (“Example 4”) or Taxol for 2 days in suspension medium, respectively. Then cells were allowed to proliferate in full medium in the absence of drugs for 10 days. After that, 10^6 cells were injected into mice subcutaneously. Tumor size was measured for 25 days after injection.

HEY A8 cells = test: Population of CD133+ cells by flow cytometry (PE-conjugated CD133 antibody); format: cell-based, human; conditions: Paclitaxel 100 nM, 3 days; control 21.8%
Description: CD133 has been reported to be a marker of ovarian CSCs. After cells treated with synthetic molecule, the population of CD133^+ cells were measured. HEY A8 cells were treated with taxol (100 nM), compound sff-2-112 (“Example 1”) or sff-2-132 (“Example 4”) at the concentration of 15 μM. Medium containing 0.1% DMSO was used as a negative control.
A suspension of HEY A8 cells at the concentration of 2.5×10^4 cells/mL in DMEM medium were seeded into 60-mm cell culture dishes. Cells were incubated at 37° C. in a humidified atmosphere containing 5% CO2 for 24 h, followed by the addition of 4 mL fresh medium or medium containing Paclitaxel (100 nM), sff-2-112 (15 μM) or compound sff-2-132 (15 μM). Medium containing 0.1% DMSO was used as a negative control. After 3 days, the medium was removed and cells were washed with cold PBS twice, and then stained with PE-conjugated CD133 antibody according to the manufacture's instruction. The fluorescence was analyzed by flow cytometry.

In the case of `CC(C)C[C@@H](ONC(=O)c1cc(C(F)(F)F)cc(C(F)(F)F)c1)C(=O)Nc1ccccc1` [sff-2-124], the IC50 (HEY A8 cancer cells; 48 h incubation) is reported as 20.8 ± 0.9 µM, the “cell viability of HEY A8 CSCs (toxicity)” value (HEY A8 CSCs (HEY A8 SP); compound 5 μM, 48 h) is reported as “significantly decreased the cell viability” and the “selectivity towards ovarian CSCs over ovarian cancer cells and normal cells” value (HEY A8 CSCs (HEY A8 SP)) is reported as “selectively induce the death of ovarian CSCs”. The IC50 (HEK293) was 67.2 ± 4.2 µM, the “death of Huh 7 CD133- cells” value (Huh 7 CD133- cells) was “induce the death” and the IC50 (SKOV3 cancer cells) was 18.6 ± 5.1 µM. For the same compound, the “toxicity to huh7 CD133+ population compared with CD133- cells” value [1] was “higher”, the “death of Huh 7 CD133+ cells” value ([1]; different doses) was “induce the death” and the IC50 (MDCK) was 13.2 ± 0.9 µM. It also gave an IC50 (NIH3T3) of 15.1 ± 0.5 µM.

For `CC(C)COC(=O)[C@@H](COCc1ccccc1)ONC(=O)c1cc(C(F)(F)F)cc(C(F)(F)F)c1` [sff-3-87], the “cell viability of HEY A8 CSCs (toxicity)” value (HEY A8 CSCs (HEY A8 SP); compound 5 μM, 48 h) was “significantly decreased the cell viability”.

In the case of `CCC(C)[C@@H](ONC(=O)c1cc(C(F)(F)F)cc(C(F)(F)F)c1)C(=O)Nc1ccccc1` (stereo partly shown) [Amy-1-4], the “cell viability of HEY A8 CSCs (toxicity)” value (HEY A8 CSCs (HEY A8 SP); compound 5 μM, 48 h) is reported as “significantly decreased the cell viability”.

In the case of `CC(OCc1ccccc1)[C@@H](ONC(=O)c1cc(C(F)(F)F)cc(C(F)(F)F)c1)C(=O)Nc1ccccc1` (stereo partly shown) [sff-3-98-2], the “cell viability of HEY A8 CSCs (toxicity)” value (HEY A8 CSCs (HEY A8 SP); compound 5 μM, 48 h) is reported as “significantly decreased the cell viability”.

With `C[C@H](ONC(=O)c1cc(C(F)(F)F)cc(C(F)(F)F)c1)C(=O)Nc1ccccc1` [sff-3-85] the “cell viability of HEY A8 CSCs (toxicity)” value (HEY A8 CSCs (HEY A8 SP); compound 10 μM, 48 h) was “significantly decreased the cell viability”.

`CC(C)(C)OC[C@@H](ONC(=O)c1cc(C(F)(F)F)cc(C(F)(F)F)c1)C(=O)Nc1ccccc1` [sff-3-100] was tested, and the “cell viability of HEY A8 CSCs (toxicity)” value (HEY A8 CSCs (HEY A8 SP); compound 5 μM, 48 h) was “significantly decreased the cell viability”.

In the case of `O=C(NO[C@H](COCc1ccccc1)C(=O)Nc1ccc(F)cc1)c1cc(C(F)(F)F)cc(C(F)(F)F)c1` [sff-3-86], the “Annexin V positive cells, CSCs” value (HEY A8 CSCs [2]) is reported as 30.4% and the “cell viability of HEY A8 CSCs (toxicity)” value (HEY A8 CSCs (HEY A8 SP); compound 5 μM, 48 h) is reported as “significantly decreased the cell viability”.

For `O=C(NO[C@H](COCc1ccccc1)C(=O)NOc1ccccc1)c1cc(C(F)(F)F)cc(C(F)(F)F)c1` [FPM-1-187], the “cell viability of HEY A8 CSCs (toxicity)” value (HEY A8 CSCs (HEY A8 SP); compound 5 μM, 48 h) was “significantly decreased the cell viability”.

With `O=C(NO[C@H](Cc1cc2ccccc2[nH]1)C(=O)Nc1ccccc1)c1cc(C(F)(F)F)cc(C(F)(F)F)c1` [Amy-1-8] the “cell viability of HEY A8 CSCs (toxicity)” value (HEY A8 CSCs (HEY A8 SP); compound 5 μM, 48 h) was “significantly decreased the cell viability”.

For `O=C(NO[C@H](COCc1ccccc1)C(=O)Nc1ccccc1)c1ccc(C(F)(F)F)cc1` [sff-3-91], the “cell viability of HEY A8 CSCs (toxicity)” value (HEY A8 CSCs (HEY A8 SP); compound 5 μM, 48 h) was “significantly decreased the cell viability”.

For `CC(=O)O[C@H]1C(=O)[C@@]2(C)[C@H]([C@H](OC(=O)c3ccccc3)[C@]3(O)C[C@H](OC(=O)[C@H](O)[C@@H](NC(=O)c4ccccc4)c4ccccc4)C(C)=C1C3(C)C)[C@]1(OC(C)=O)CO[C@@H]1C[C@@H]2O` [paclitaxel, reference compound], the “tumor-seeding ability / tumor size of pretreated cells” value (HEY A8 CSCs [3]) was “resistant” and the “population of CD133+ cells after treatment” value (HEY A8 cells) was 31.6%.

With `CC(C)(C)Oc1ccc(C[C@@H](ONC(=O)c2cc(C(F)(F)F)cc(C(F)(F)F)c2)C(=O)Nc2ccccc2)cc1` [sff-3-101] the “cell viability of HEY A8 CSCs (toxicity)” value (HEY A8 CSCs (HEY A8 SP); compound 5 μM, 48 h) was “significantly decreased the cell viability”.

With `O=C(NO[C@H](COCc1ccccc1)C(=O)NO[C@@H](Cc1ccccc1)C(=O)Nc1ccccc1)c1cc(C(F)(F)F)cc(C(F)(F)F)c1` [sff-2-100] the IC50 (HEY A8 cancer cells; Homo sapiens, HEY A8, 48 h incubation) was 22.4 ± 1 µM, the “rank of toxicity among the 14 molecules on HEY A8 CSCs” value (HEY A8 CSCs (HEY A8 SP); 5 μM, 48 h) was “highest toxicity” and the IC50 (HEY A8 CSCs (HEY A8 SP); Homo sapiens, HEY A8 spheres, 48 h incubation, read-out: IC50 Cancer Stem Cell HeyA8 SP) was 2.8 ± 0.9 µM. For the same compound, the “cell viability of HEY A8 CSCs (toxicity)” value (HEY A8 CSCs (HEY A8 SP); compound 5 μM, 48 h) was “significantly decreased the cell viability”, the “selectivity towards ovarian CSCs over ovarian cancer cells and normal cells” value (HEY A8 CSCs (HEY A8 SP)) was “selectively induce the death of ovarian CSCs” and the IC50 (HEK293; Homo sapiens, HEK293) was 18.3 ± 0.6 µM. For the same compound, the IC50 (MDCK; Canis lupus familiaris, MDCK) was 18 ± 0.7 µM and the IC50 (NIH3T3; Mus musculus, NIH3T3) was 2.8 ± 0.9 µM.
